Test results: ChEMBL document CHEMBL3797123, “Amino(oxo)acetate moiety: A new functional group to improve the cytotoxicity of betulin derived carbamates” (Bioorg Med Chem Lett, 2016)

System: A2780
Experiment: Cytotoxicity against human A2780 cells after 96 hrs by SRB assay
Type: functional, cell-based
Conditions: A2780, 96 h

Structure (SMILES)	EC50 [µM]
C=C(C)[C@@H]1CC[C@]2(CO)CC[C@]3(C)[C@H](CC[C@@H]4[C@@]5(C)CC[C@H](OC(C)=O)C(C)(C)[C@@H]5CC[C@]43C)[C@@H]12	28.5
C=C(C)[C@@H]1CC[C@]2(COC(=O)NCCCCCC)CC[C@]3(C)[C@H](CC[C@@H]4[C@@]5(C)CC[C@H](O)C(C)(C)[C@@H]5CC[C@]43C)[C@@H]12	7.6
C=C(C)[C@@H]1CC[C@]2(COC(=O)NCC)CC[C@]3(C)[C@H](CC[C@@H]4[C@@]5(C)CC[C@H](OC(=O)C(N)=O)C(C)(C)[C@@H]5CC[C@]43C)[C@@H]12	10
C=C(C)[C@@H]1CC[C@]2(COC(=O)NCCCC)CC[C@]3(C)[C@H](CC[C@@H]4[C@@]5(C)CC[C@H](OC(=O)C(N)=O)C(C)(C)[C@@H]5CC[C@]43C)[C@@H]12	6.4
C=C(C)[C@@H]1CC[C@]2(COC(=O)NCCCCCC)CC[C@]3(C)[C@H](CC[C@@H]4[C@@]5(C)CC[C@H](OC(=O)C(N)=O)C(C)(C)[C@@H]5CC[C@]43C)[C@@H]12	2
C=C(C)[C@@H]1CC[C@]2(COC(=O)NCCC)CC[C@]3(C)[C@H](CC[C@@H]4[C@@]5(C)CC[C@H](OC(=O)C(N)=O)C(C)(C)[C@@H]5CC[C@]43C)[C@@H]12	7
C=C(C)[C@@H]1CC[C@]2(COC(=O)Nc3ccccc3)CC[C@]3(C)[C@H](CC[C@@H]4[C@@]5(C)CC[C@H](OC(=O)C(N)=O)C(C)(C)[C@@H]5CC[C@]43C)[C@@H]12	17.3
C=C(C)[C@@H]1CC[C@]2(COC(C)=O)CC[C@]3(C)[C@H](CC[C@@H]4[C@@]5(C)CC[C@H](OC(C)=O)C(C)(C)[C@@H]5CC[C@]43C)[C@@H]12 [BETULIN DIACETATE]	20.3

System: HeLa
Experiment: Cytotoxicity against human HeLa cells after 96 hrs by SRB assay
Type: functional, cell-based
Conditions: not given

Structure (SMILES)	EC50 [µM]
C=C(C)[C@@H]1CC[C@]2(CO)CC[C@]3(C)[C@H](CC[C@@H]4[C@@]5(C)CC[C@H](OC(C)=O)C(C)(C)[C@@H]5CC[C@]43C)[C@@H]12	> 30
C=C(C)[C@@H]1CC[C@]2(COC(=O)NCC)CC[C@]3(C)[C@H](CC[C@@H]4[C@@]5(C)CC[C@H](OC(=O)C(N)=O)C(C)(C)[C@@H]5CC[C@]43C)[C@@H]12	14.1
C=C(C)[C@@H]1CC[C@]2(COC(=O)NCCCC)CC[C@]3(C)[C@H](CC[C@@H]4[C@@]5(C)CC[C@H](OC(=O)C(N)=O)C(C)(C)[C@@H]5CC[C@]43C)[C@@H]12	11.2
C=C(C)[C@@H]1CC[C@]2(COC(=O)NCCCCCC)CC[C@]3(C)[C@H](CC[C@@H]4[C@@]5(C)CC[C@H](OC(=O)C(N)=O)C(C)(C)[C@@H]5CC[C@]43C)[C@@H]12	10.1
C=C(C)[C@@H]1CC[C@]2(COC(=O)NCCC)CC[C@]3(C)[C@H](CC[C@@H]4[C@@]5(C)CC[C@H](OC(=O)C(N)=O)C(C)(C)[C@@H]5CC[C@]43C)[C@@H]12	12.8
C=C(C)[C@@H]1CC[C@]2(COC(=O)Nc3ccccc3)CC[C@]3(C)[C@H](CC[C@@H]4[C@@]5(C)CC[C@H](OC(=O)C(N)=O)C(C)(C)[C@@H]5CC[C@]43C)[C@@H]12	10.5
C=C(C)[C@@H]1CC[C@]2(COC(C)=O)CC[C@]3(C)[C@H](CC[C@@H]4[C@@]5(C)CC[C@H](OC(C)=O)C(C)(C)[C@@H]5CC[C@]43C)[C@@H]12 [BETULIN DIACETATE]	> 30
C=C(C)[C@@H]1CC[C@]2(C(=O)O)CC[C@]3(C)[C@H](CC[C@@H]4[C@@]5(C)CC[C@H](O)C(C)(C)[C@@H]5CC[C@]43C)[C@@H]12 [BETULINIC ACID]	8.8
C=C(C)[C@@H]1CC[C@]2(CO)CC[C@]3(C)[C@H](CC[C@@H]4[C@@]5(C)CC[C@H](O)C(C)(C)[C@@H]5CC[C@]43C)[C@@H]12 [BETULIN]	> 30

System: HT-29
Experiment: Cytotoxicity against human HT-29 cells after 96 hrs by SRB assay
Type: functional, cell-based
Conditions: HT-29, 96 h

Structure (SMILES)	EC50 [µM]
C=C(C)[C@@H]1CC[C@]2(CO)CC[C@]3(C)[C@H](CC[C@@H]4[C@@]5(C)CC[C@H](OC(C)=O)C(C)(C)[C@@H]5CC[C@]43C)[C@@H]12	> 30
C=C(C)[C@@H]1CC[C@]2(COC(=O)NCC)CC[C@]3(C)[C@H](CC[C@@H]4[C@@]5(C)CC[C@H](OC(=O)C(N)=O)C(C)(C)[C@@H]5CC[C@]43C)[C@@H]12	15.3
C=C(C)[C@@H]1CC[C@]2(COC(=O)NCCCC)CC[C@]3(C)[C@H](CC[C@@H]4[C@@]5(C)CC[C@H](OC(=O)C(N)=O)C(C)(C)[C@@H]5CC[C@]43C)[C@@H]12	10.1
C=C(C)[C@@H]1CC[C@]2(COC(=O)NCCCCCC)CC[C@]3(C)[C@H](CC[C@@H]4[C@@]5(C)CC[C@H](OC(=O)C(N)=O)C(C)(C)[C@@H]5CC[C@]43C)[C@@H]12	7.3
C=C(C)[C@@H]1CC[C@]2(COC(=O)NCCC)CC[C@]3(C)[C@H](CC[C@@H]4[C@@]5(C)CC[C@H](OC(=O)C(N)=O)C(C)(C)[C@@H]5CC[C@]43C)[C@@H]12	12.8
C=C(C)[C@@H]1CC[C@]2(COC(=O)Nc3ccccc3)CC[C@]3(C)[C@H](CC[C@@H]4[C@@]5(C)CC[C@H](OC(=O)C(N)=O)C(C)(C)[C@@H]5CC[C@]43C)[C@@H]12	21.4
C=C(C)[C@@H]1CC[C@]2(COC(C)=O)CC[C@]3(C)[C@H](CC[C@@H]4[C@@]5(C)CC[C@H](OC(C)=O)C(C)(C)[C@@H]5CC[C@]43C)[C@@H]12 [BETULIN DIACETATE]	25.7
C=C(C)[C@@H]1CC[C@]2(CO)CC[C@]3(C)[C@H](CC[C@@H]4[C@@]5(C)CC[C@H](O)C(C)(C)[C@@H]5CC[C@]43C)[C@@H]12 [BETULIN]	> 30

System: not listed separately
Experiment: Cytotoxicity against human 518A2 cells after 96 hrs by SRB assay
Type: functional, cell-based
Conditions: 518A2, 96 h

Structure (SMILES)	EC50 [µM]
C=C(C)[C@@H]1CC[C@]2(CO)CC[C@]3(C)[C@H](CC[C@@H]4[C@@]5(C)CC[C@H](OC(C)=O)C(C)(C)[C@@H]5CC[C@]43C)[C@@H]12	> 30
C=C(C)[C@@H]1CC[C@]2(COC(=O)NCCCCCC)CC[C@]3(C)[C@H](CC[C@@H]4[C@@]5(C)CC[C@H](O)C(C)(C)[C@@H]5CC[C@]43C)[C@@H]12	5.6
C=C(C)[C@@H]1CC[C@]2(COC(=O)NCC)CC[C@]3(C)[C@H](CC[C@@H]4[C@@]5(C)CC[C@H](OC(=O)C(N)=O)C(C)(C)[C@@H]5CC[C@]43C)[C@@H]12	11.4
C=C(C)[C@@H]1CC[C@]2(COC(=O)NCCCC)CC[C@]3(C)[C@H](CC[C@@H]4[C@@]5(C)CC[C@H](OC(=O)C(N)=O)C(C)(C)[C@@H]5CC[C@]43C)[C@@H]12	7.9
C=C(C)[C@@H]1CC[C@]2(COC(=O)NCCCCCC)CC[C@]3(C)[C@H](CC[C@@H]4[C@@]5(C)CC[C@H](OC(=O)C(N)=O)C(C)(C)[C@@H]5CC[C@]43C)[C@@H]12	6.5
C=C(C)[C@@H]1CC[C@]2(COC(=O)NCCC)CC[C@]3(C)[C@H](CC[C@@H]4[C@@]5(C)CC[C@H](OC(=O)C(N)=O)C(C)(C)[C@@H]5CC[C@]43C)[C@@H]12	9.9
C=C(C)[C@@H]1CC[C@]2(COC(=O)Nc3ccccc3)CC[C@]3(C)[C@H](CC[C@@H]4[C@@]5(C)CC[C@H](OC(=O)C(N)=O)C(C)(C)[C@@H]5CC[C@]43C)[C@@H]12	15.3

System: A549
Experiment: Cytotoxicity against human A549 cells after 96 hrs by SRB assay
Type: functional, cell-based
Conditions: A549, 96 h

Structure (SMILES)	EC50 [µM]
C=C(C)[C@@H]1CC[C@]2(CO)CC[C@]3(C)[C@H](CC[C@@H]4[C@@]5(C)CC[C@H](OC(C)=O)C(C)(C)[C@@H]5CC[C@]43C)[C@@H]12	> 30
C=C(C)[C@@H]1CC[C@]2(COC(=O)NCC)CC[C@]3(C)[C@H](CC[C@@H]4[C@@]5(C)CC[C@H](OC(=O)C(N)=O)C(C)(C)[C@@H]5CC[C@]43C)[C@@H]12	13.7
C=C(C)[C@@H]1CC[C@]2(COC(=O)NCCCC)CC[C@]3(C)[C@H](CC[C@@H]4[C@@]5(C)CC[C@H](OC(=O)C(N)=O)C(C)(C)[C@@H]5CC[C@]43C)[C@@H]12	9.1
C=C(C)[C@@H]1CC[C@]2(COC(=O)NCCCCCC)CC[C@]3(C)[C@H](CC[C@@H]4[C@@]5(C)CC[C@H](OC(=O)C(N)=O)C(C)(C)[C@@H]5CC[C@]43C)[C@@H]12	7.4
C=C(C)[C@@H]1CC[C@]2(COC(=O)NCCC)CC[C@]3(C)[C@H](CC[C@@H]4[C@@]5(C)CC[C@H](OC(=O)C(N)=O)C(C)(C)[C@@H]5CC[C@]43C)[C@@H]12	10.5
C=C(C)[C@@H]1CC[C@]2(COC(=O)Nc3ccccc3)CC[C@]3(C)[C@H](CC[C@@H]4[C@@]5(C)CC[C@H](OC(=O)C(N)=O)C(C)(C)[C@@H]5CC[C@]43C)[C@@H]12	20.4
C=C(C)[C@@H]1CC[C@]2(COC(C)=O)CC[C@]3(C)[C@H](CC[C@@H]4[C@@]5(C)CC[C@H](OC(C)=O)C(C)(C)[C@@H]5CC[C@]43C)[C@@H]12 [BETULIN DIACETATE]	21.5

System: MCF7
Experiment: Cytotoxicity against human MCF7 cells after 96 hrs by SRB assay
Type: functional, cell-based
Conditions: MCF7, 96 h

Structure (SMILES)	EC50 [µM]
C=C(C)[C@@H]1CC[C@]2(CO)CC[C@]3(C)[C@H](CC[C@@H]4[C@@]5(C)CC[C@H](OC(C)=O)C(C)(C)[C@@H]5CC[C@]43C)[C@@H]12	20.2
C=C(C)[C@@H]1CC[C@]2(COC(=O)NCC)CC[C@]3(C)[C@H](CC[C@@H]4[C@@]5(C)CC[C@H](OC(=O)C(N)=O)C(C)(C)[C@@H]5CC[C@]43C)[C@@H]12	11.2
C=C(C)[C@@H]1CC[C@]2(COC(=O)NCCCC)CC[C@]3(C)[C@H](CC[C@@H]4[C@@]5(C)CC[C@H](OC(=O)C(N)=O)C(C)(C)[C@@H]5CC[C@]43C)[C@@H]12	10
C=C(C)[C@@H]1CC[C@]2(COC(=O)NCCCCCC)CC[C@]3(C)[C@H](CC[C@@H]4[C@@]5(C)CC[C@H](OC(=O)C(N)=O)C(C)(C)[C@@H]5CC[C@]43C)[C@@H]12	5.6
C=C(C)[C@@H]1CC[C@]2(COC(=O)NCCC)CC[C@]3(C)[C@H](CC[C@@H]4[C@@]5(C)CC[C@H](OC(=O)C(N)=O)C(C)(C)[C@@H]5CC[C@]43C)[C@@H]12	12.5
C=C(C)[C@@H]1CC[C@]2(COC(=O)Nc3ccccc3)CC[C@]3(C)[C@H](CC[C@@H]4[C@@]5(C)CC[C@H](OC(=O)C(N)=O)C(C)(C)[C@@H]5CC[C@]43C)[C@@H]12	17.6
